Source: US5449612A, “Process for identifying candida by means of chromogenic substances” (Serbio, priority 1990, dated 1995)

Legend:
C. albicans [1] = experiment: Diagnosis from isolated colonies on gelose 2/5; type: cell-based, Candida albicans; conditions: isolated colonies, gelose 2; note: key: -: none; +: weak; ++: moderate; +++: intense; ++++: very intense
C. pseudotropicalis [2] = experiment: Diagnosis from non-isolated colonies on gelose 2/5; type: cell-based, Candida pseudotropicalis; note: key: -: none; +: weak; ++: moderate; +++: intense; ++++: very intense
C. guillermondii [3] = experiment: Diagnosis from isolated colonies on gelose 2/5; type: cell-based, Candida guillermondii; conditions: Table VI, 2 strains, gelose 2; note: key: -: none; +: weak; ++: moderate; +++: intense; ++++: very intense
C. pseudotropicalis [4] = experiment: Diagnosis from isolated colonies on gelose 2/5; type: cell-based, Candida pseudotropicalis; conditions: Table VI, 2 strains, gelose 2; note: key: -: none; +: weak; ++: moderate; +++: intense; ++++: very intense
T. glabrata [5] = experiment: Diagnosis from non-isolated colonies on gelose 2/5; type: cell-based, Torulopsis glabrata; conditions: 8 strains; note: key: -: none; +: weak; ++: moderate; +++: intense; ++++: very intense
T. glabrata [6] = experiment: Diagnosis from isolated colonies on gelose 2/5; type: cell-based, Torulopsis glabrata; conditions: isolated colonies, gelose 2; note: key: -: none; +: weak; ++: moderate; +++: intense; ++++: very intense
C. guillermondii [7] = experiment: Diagnosis from non-isolated colonies on gelose 2/5; type: cell-based, Candida guillermondii; conditions: 1 strain; note: key: -: none; +: weak; ++: moderate; +++: intense; ++++: very intense
C. tropicalis [8] = experiment: Diagnosis from non-isolated colonies on gelose 2/5; type: cell-based, Candida tropicalis; conditions: 1 strain; note: key: -: none; +: weak; ++: moderate; +++: intense; ++++: very intense
C. zeylanoides [9] = experiment: Diagnosis from non-isolated colonies on gelose 5; type: cell-based, Candida zeylanoides; conditions: Table IX, 1 strain, gelose 5, cycloheximide; note: key: -: none; +: weak; ++: moderate; +++: intense; ++++: very intense
C. tropicalis [10] = experiment: Diagnosis from isolated colonies on gelose 2/5; type: cell-based, Candida tropicalis; conditions: gelose 2; for Reading at t = 24 h: isolated colonies
Tr. cutaneum [11] = experiment: Diagnosis from non-isolated colonies on gelose 2/5; type: cell-based, Trichosporon cutaneum; conditions: 2 strains
C. albicans [12] = experiment: Diagnosis from non-isolated colonies on gelose 2/5; type: cell-based, Candida albicans
C. parapsilosis [13] = experiment: Diagnosis from non-isolated colonies on gelose 2/5; type: cell-based, Candida parapsilosis; note: key: -: none; +: weak; ++: moderate; +++: intense; ++++: very intense
Cr. neoformans = experiment: Diagnosis from non-isolated colonies on gelose 2/5; type: cell-based, Cryptococcus neoformans; conditions: Table VIII, 1 strain, gelose 2; note: key: -: none; +: weak; ++: moderate; +++: intense; ++++: very intense
C. krusei [14] = experiment: Diagnosis from non-isolated colonies on gelose 2/5; type: cell-based, Candida krusei; conditions: non-isolated colonies
Protocol: (§1) According to the afore-mentioned best mode of carrying out the invention, a culture medium containing the following ingredients is prepared; it is called gelose 2 below and is buffered to pH 6.0.
(§2) According to the afore-mentioned best mode of carrying out the invention, a culture medium containing the following ingredients is prepared; it is called gelose 5 below and is buffered to pH 6.0.
A mixture of several non-isolated strains of C. albicans, C. tropicalis, C. krusei, C. guillermondii, C. pseudotropicalis, C. parapsilosis, Cryptococcus neoformaas, Torulopsis glabrata and Trichosporon cutaneum was inoculated and incubated on the culture media according to Examples 1 to 5, containing the substrate N-Ac-β-D-galactosaminide-PNP of the prior art or the substrate H-Pro-pNA.AcOH according to the invention. The results, which were obtained particularly with geloses 2 and 5, are collated in Table VIII below, where the TTC column relates to results of tests undertaken separately on a standard gelose medium containing TTC.
(§3) A mixture of several non-isolated strains of C. albicans, C. tropicalis, C. krusei, C. guillermondii, C. pseudotropicalis, C. parapsilosis, C. zeylanoides, C. ciferii, C. cerevisiae, Torulopsis glabrata and Trichosporon cutaneum was inoculated and incubated on the culture media according to Example 5, containing the substrate N-Ac-β-D-galactosaminide-PNP of the prior art or the substrate H-Pro-pNA.AcOH according to the invention.

C. parapsilosis [15] = experiment: Diagnosis from isolated colonies on gelose 2/5; type: cell-based, Candida parapsilosis; conditions: Table VI, 5 strains, gelose 2; note: key: -: none; +: weak; ++: moderate; +++: intense; ++++: very intense
C. krusei [16] = experiment: Diagnosis from isolated colonies on gelose 2/5; type: cell-based, Candida krusei; conditions: isolated colonies, gelose 2
Protocol: as §1, §2
Several isolated strains of C. albicans, C. tropicalis, C. krusei, C. guillermondii, C. pseudotropicalis, C. parapsilosis, C. zeylanoides, T. glabrata and Trichosporon cutaneum were inoculated and incubated on the media of Examples 1 to 5. […] Part of the results obtained has been collated in Table VI below, where the TTC column relates to results of tests undertaken separately on a standard gelose medium containing TTC.
Several isolated strains of C. albicans, C. tropicalis, C. krusei, C. guillermondii and T. glabrata were inoculated and incubated on the media of Example 2 [containing either the substrate N-Ac-β-D-galactosaminide-PNP of the prior art, or the substrates H-L-PropNA.AcOH (specific for C. albicans), EM-L-Phg-L-ArgpNA.AcOH (specific for T. glabrata) and H-Gly-L-Pro-L-Arg-pNA.2AcOH (specific for C. krusei)]and of Example 5 (containing the substrate H-L-Pro-pNA.AcOH).

C. ciferii = experiment: Diagnosis from non-isolated colonies on gelose 5; type: cell-based; conditions: Table IX, 1 strain, gelose 5, cycloheximide; note: key: -: none; +: weak; ++: moderate; +++: intense; ++++: very intense
Tr. cutaneum [17] = experiment: Diagnosis from isolated colonies on gelose 2/5; type: cell-based, Trichosporon cutaneum; conditions: Table VI, 1 strain, gelose 2; note: key: -: none; +: weak; ++: moderate; +++: intense; ++++: very intense
C. zeylanoides [18] = experiment: Diagnosis from isolated colonies on gelose 2/5; type: cell-based, Candida zeylanoides; conditions: Table VI, 1 strain, gelose 2; note: key: -: none; +: weak; ++: moderate; +++: intense; ++++: very intense
C. cerevisiae = experiment: Diagnosis from non-isolated colonies on gelose 5; type: cell-based; conditions: Table IX; non-isolated colonies, 1 strain; gelose 5, cycloheximide
Protocol: as §2, §3

[19] = tested on: C. albicans, C. guillermondii, C. intermedia, C. lipolytica, C. lusitanica, C. parapsilosis, C. rugosa and C. zeylanoides; conditions: U.S. Pat. No. 4,874,695, Table IV; cited from earlier work
Candida tropicalis = experiment: Tests on substrates against Candida tropicalis, colour reading on buffered gelose; type: cell-based; conditions: Table III; medium pH 6.0
T. glabrata [20] = experiment: Tests on substrates against T. glabrata, colour reading on buffered gelose; type: cell-based, Torulopsis glabrata; conditions: Table III; medium pH 6.0; note: key: -: none; +: weak; ++: moderate; +++: intense; ++++: very intense
β-D-glucosidase = conditions: Casal et al. 1983; Polachek et al. 1987; cited from earlier work
[21] = Table IX, gelose 5, cycloheximide
[22] = Table IX, 1 strain, gelose 5, cycloheximide

Compound: CC(=O)N[C@H]1[C@H](Oc2ccc([N+](=O)[O-])cc2)O[C@H](CO)[C@H](O)[C@@H]1O [NAc-D-galactosaminide-PNP, N-Ac-β-D-galactosaminide-PNP, reference compound]
- Reading at t = 24 h (C. albicans [1]; Table VI, 10 strains): ++++
- Reading at t = 24 h (C. albicans [1]; Table VII, 6 strains): +++
- Reading at t = 24 h (C. pseudotropicalis [2]; Table IX, 2 strains, gelose 5, cycloheximide): -
- Reading at t = 24 h (C. pseudotropicalis [2]; Table VIII, 1 strain, gelose 2): -
- Reading at t = 24 h (C. guillermondii [3]): -
- Reading at t = 24 h (C. pseudotropicalis [4]): -
- Reading at t = 24 h (T. glabrata [5]; [21]): -
- Reading at t = 24 h (T. glabrata [5]; Table VIII, gelose 2): -
- Reading at t = 24 h (T. glabrata [6]; Table VI, 4 strains): -
- Reading at t = 24 h (T. glabrata [6]; Table VII, 9 strains): -
- Reading at t = 24 h (C. guillermondii [7]; [21]): -
- Reading at t = 24 h (C. guillermondii [7]; Table VIII, gelose 2): -
- Reading at t = 24 h (C. tropicalis [8]; [21]): -
- Reading at t = 24 h (C. tropicalis [8]; Table VIII, gelose 2): -
- Reading at t = 24 h (C. zeylanoides [9]): -
- Reading at t = 24 h (C. tropicalis [10]; Table VI, 4 strains): 3 gave the result - and 1 the result ++
- Reading at t = 24 h (C. tropicalis [10]; Table VII, 9 strains): positive (++) for only 1 of the 9 strains tested and negative
- Reading at t = 24 h (Tr. cutaneum [11]; [21]): -
- Reading at t = 24 h (Tr. cutaneum [11]; Table VIII, gelose 2): - result for 1 strain and +++ result for the other strain
- Reading at t = 24 h (C. albicans [12]; Table IX, 89 strains, gelose 5, cycloheximide): ++++ and negative for 2 out of 89 strains
- Reading at t = 24 h (C. albicans [12]; Table VIII, 13 strains, gelose 2): ++++
- Reading at t = 24 h (C. parapsilosis [13]; [22]): -
- Reading at t = 24 h (C. parapsilosis [13]; Table VIII, 2 strains, gelose 2): -
- Reading at t = 24 h (Cr. neoformans): -
- Reading at t = 24 h (C. krusei [14]; [22]): -
- Reading at t = 24 h (C. krusei [14]; Table VIII, 6 strains, gelose 2): -
- Reading at t = 24 h (C. parapsilosis [15]): -
- Reading at t = 24 h (C. krusei [16]; Table VI, 4 strains): -
- Reading at t = 24 h (C. krusei [16]; Table VII, 6 strains): -
- Reading at t = 24 h (C. ciferii): -
- Reading at t = 24 h (Tr. cutaneum [17]): ++
- Reading at t = 24 h (C. zeylanoides [18]): -
- Reading at t = 24 h (C. cerevisiae): -

Compound: O=C(Nc1ccc([N+](=O)[O-])cc1)[C@@H]1CCCN1 [H-L-Pro-pNA]
- sensitivity towards strains of Candida [19]: sensitive towards several strains of Candida

Compound: EM-L-Phg-L-Arg-pNA.AcOH
- Reading at t = 24 h (C. albicans [1]; Table VII, 6 strains): -
- Reading at t = 24 h (T. glabrata [6]; Table VII, 9 strains): +++
- hydrolysis by the strains of C. tropicalis (C. tropicalis [10]; Example 7, isolated strains): hydrolyzed
- Reading at t = 24 h (C. tropicalis [10]; Table VII, 9 strains): ++
- C. TROPICALIS reading at 24 h (Candida tropicalis): +++
- Reading at t = 24 h (C. krusei [16]; Table VII, 6 strains): -
- T. GLABRATA reading at 24 h (T. glabrata [20]): ++++

Compound: OC[C@H]1O[C@@H](Oc2ccc3cc(Br)ccc3c2)[C@H](O)[C@@H](O)[C@@H]1O [(6-bromo-β-naphthyl)-β-D-glucopyranoside]
- reaction with isolated strains (β-D-glucosidase): positive reaction
